According to publication PMC5356311, “Experimental recreation of the evolution of lignin-degrading enzymes from the Jurassic to date” (Biotechnology for Biofuels, 2017):
Where two headings read alike, the source gives them in different places. Values belong to the molecule of their own block, whether it stands above or below them.

Columns and labels:
CaPo = test: steady-state kinetics, spectrophotometric ([…] nm); format: biochemical, ancestral sequence (Polyporales, reconstructed); conditions: 0.4 mM H2O2, 0.1 M tartrate, pH 2, 25 °C; low efficiency site (heme channel)
CaCD [1] = test: steady-state kinetics, spectrophotometric ([…] nm); format: biochemical, ancestral sequence (Polyporales, reconstructed); conditions: 0.4 mM H2O2, 0.1 M tartrate, pH 3.0, 25 °C; low efficiency site (heme channel)
AVP [2] = test: steady-state kinetics, spectrophotometric ([…] nm); format: biochemical, ancestral sequence (Polyporales, reconstructed); conditions: 0.4 mM H2O2, 0.1 M tartrate, pH 3.0, 25 °C; biphasic kinetics, high efficiency site (exposed Trp)
ALiP [3] = test: steady-state kinetics, spectrophotometric ([…] nm); format: biochemical, ancestral sequence (Polyporales, reconstructed); conditions: 0.2 mM H2O2, 0.1 M tartrate, pH 3.0, 25 °C; high efficiency site (exposed Trp)
ALiP [4] = test: steady-state kinetics, spectrophotometric ([…] nm); format: biochemical, ancestral sequence (Polyporales, reconstructed); conditions: 0.2 mM H2O2, 0.1 M tartrate, pH 3, 25 °C; exposed Trp site
AVP [5] = test: steady-state kinetics, spectrophotometric ([…] nm); format: biochemical, ancestral sequence (Polyporales, reconstructed); conditions: 0.4 mM H2O2, 0.1 M tartrate, pH 3, 25 °C; exposed Trp site
CaPo-bis = conditions: saturating H2O2, 0.1 M tartrate, 25 °C; low efficiency site (heme channel)
CaPo-tris = conditions: saturating H2O2, 0.1 M tartrate, 25 °C; low efficiency site (heme channel)
CaCD [6] = conditions: read-out: CaCD; 0.4 mM H2O2, 0.1 M tartrate, pH 3.5, 25 °C; low efficiency site (heme channel)
ALiP [7] = conditions: read-out: ALiP; 0.2 mM H2O2, 0.1 M tartrate, pH 3.5, 25 °C; high efficiency site (exposed Trp)
AVP [8] = test: steady-state kinetics, spectrophotometric ([…] nm); format: biochemical, ancestral sequence (Polyporales, reconstructed); conditions: 0.4 mM H2O2, 0.1 M tartrate, pH 3.5, 25 °C; biphasic kinetics, high efficiency site (exposed Trp)
AVP [9] = test: steady-state kinetics, spectrophotometric ([…] nm); format: biochemical, ancestral sequence (Polyporales, reconstructed); conditions: 0.4 mM H2O2, 0.1 M tartrate, pH 3.5, 25 °C; exposed Trp site
ALiP [10] = test: steady-state kinetics, spectrophotometric ([…] nm); format: biochemical, ancestral sequence (Polyporales, reconstructed); conditions: 0.2 mM H2O2, 0.1 M tartrate, pH 3.0, 25 °C; exposed Trp site
purified protein [11] = substrate: CCn1c(=NN=c2sc3cc(S(=O)(=O)O)ccc3n2CC)sc2cc(S(=O)(=O)O)ccc21; test: purified protein; format: biochemical, Phanerodontia chrysosporium; conditions: 0.1 mM H2O2, 0.1 M tartrate, pH 3.5, 25 °C, high efficiency site (exposed Trp)
purified protein [12] = substrate: COc1cccc(OC)c1O; test: purified protein; format: biochemical, Phanerodontia chrysosporium; conditions: 0.1 mM H2O2, 0.1 M tartrate, pH 3.0, 25 °C, high efficiency site (exposed Trp)
purified protein [13] = substrate: COc1ccc(CO)cc1OC; test: purified protein; format: biochemical, Phanerodontia chrysosporium; conditions: 0.1 mM H2O2, 0.1 M tartrate, pH 3.0, 25 °C, exposed Trp site

Molecule: COc1cccc(OC)c1O [DMP]
Km (CaPo): 32900 µM
Km (CaCD [1]): 66800 µM
Km (AVP [2]): 5.3 ± 1.1 µM
Km (ALiP [3]): 34 ± 5.4 µM

Molecule: CCn1c(=NN=c2sc3cc(S(=O)(=O)O)ccc3n2CC)sc2cc(S(=O)(=O)O)ccc21 [ABTS]
Km (CaPo-bis): 1390 ± 345 µM
Km (CaPo-tris): 807 ± 104 µM
Km (CaCD [6]): 1280 ± 350 µM
Km (ALiP [7]): 13.7 ± 3.5 µM
Km (AVP [8]): 5.4 ± 0.7 µM

B1: LiPH8 (Phanerodontia chrysosporium) (protein)
chain: ATCSNGKTVGDASCCAWFDVLDDIQQNLFHGGQCGAEAHESIRLVFHDSIAISPAMEAQGKFGGGGADGSIMIFDDIETAFHPNIGLDEIVKLQKPFVQKHGVTPGDFIAFAGRVALSNCPGAPQMNFFTGRAPATQPAPDGLVPEPFHTVDQIINRVNDAGEFDELELVWMLSAHSVAAVNDVDPTVQGLPFDSTPGIFDSQFFVETQLRGTAFPGSGGNQGEVESPLPGEIRIQSDHTIARDSRTACEWQSFVNNQSKLVDDFQFIFLALTQLGQDPNAMTDCSDVIPQSKPIPGNLPFSFFPAGKTIKDVEQACAETPFPTLTTLPGPETSVQRIPPPPGA
Km (purified protein [11]): 21.3 ± 2.3 µM
kcat (purified protein [11]): 6.5 ± 0.2 s⁻¹
kcat/Km (purified protein [11]): 300000 ± 25000 M⁻¹ s⁻¹
Km (purified protein [12]): 4.0 ± 0.07 µM
Km (purified protein [13]): 79.3 ± 18 µM
kcat (purified protein [13]): 16.2 ± 0.8 s⁻¹
kcat/Km (purified protein [13]): 205000 ± 4000 M⁻¹ s⁻¹

Next, values leading:

Km (ALiP [4]): 12.6 ± 3.6 µM
Km (AVP [5]): 4.8 ± 0.8 µM
Molecule: Nc1c(N=Nc2ccc(S(=O)(=O)CCOS(=O)(=O)O)cc2)c(S(=O)(=O)O)cc2cc(S(=O)(=O)O)c(N=Nc3ccc(S(=O)(=O)CCOS(=O)(=O)O)cc3)c(O)c12 [RB5]

Km (AVP [9]): 299 ± 104 µM
Km (ALiP [10]): 773 ± 155 µM
Molecule: COc1ccc(CO)cc1OC [VA]
